What is called Ki is the dissociation constant of the complex between target and ligand, obtained from inhibition or displacement.

Results on ten molecules are retold here after ChEMBL document CHEMBL1135019, “New generation dopaminergic agents. Part 8: heterocyclic bioisosteres that exploit the 7-OH-2-(aminomethyl)chroman D(2) template” (Bioorg Med Chem Lett, 2002).

Experiment [1] concerns the target T1, D(2) dopamine receptor (Rattus norvegicus, UniProt P61169).
Description: Affinity of compound for D2 receptor in rat striatal membrane determined for agonist state (high affinity state, D2 High) [3H]quinpirole as radioligand (in the absence of GTP and sodium)
Experiment [2] concerns the target T1, D(2) dopamine receptor. The source holds these as a separate data set.
Description: Affinity of compound for Dopamine receptor D2 in rat striatal membrane determined for antagonist state (low affinity state, D2 Low) with [3H]spiperone (using ketanserin to exclude 5-HT2 receptor binding) in the presence of GTP and sodium
Experiment [3] has as its target D(2) dopamine receptor (Homo sapiens, UniProt P14416). The experiment can be described thus: biochemical.
Description: Affinity for the Dopamine receptor D2S was determined using membranes from CHO cells labeled with [3H]spiperone
A further experiment has as its target D(3) dopamine receptor (Homo sapiens, UniProt P35462). Description: biochemical.
Another experiment has as its target T2, D(4) dopamine receptor (Homo sapiens, UniProt P21917).
T2 sequence (P21917 whole entry): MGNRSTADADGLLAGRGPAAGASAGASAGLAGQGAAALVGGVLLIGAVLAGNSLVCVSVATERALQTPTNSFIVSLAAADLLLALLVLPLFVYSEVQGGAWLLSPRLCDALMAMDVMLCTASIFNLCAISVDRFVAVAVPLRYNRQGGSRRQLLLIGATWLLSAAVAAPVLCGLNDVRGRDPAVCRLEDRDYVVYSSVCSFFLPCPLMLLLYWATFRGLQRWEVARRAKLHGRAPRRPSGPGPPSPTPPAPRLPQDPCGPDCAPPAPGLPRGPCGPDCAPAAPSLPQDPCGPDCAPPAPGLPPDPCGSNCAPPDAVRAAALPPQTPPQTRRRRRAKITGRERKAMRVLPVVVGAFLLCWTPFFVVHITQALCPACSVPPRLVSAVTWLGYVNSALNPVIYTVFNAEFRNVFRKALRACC
Description: biochemical.

Experiment [4] concerns the target D(2) dopamine receptor (Rattus norvegicus) (UniProt P61169). The experiment can be described thus: Ratio D2 partial agonist, Ki(D2 Low)/Ki(D2 High), to compare a compounds estimated intrinsic activity.

Chain of D(3) dopamine receptor (P35462 whole entry): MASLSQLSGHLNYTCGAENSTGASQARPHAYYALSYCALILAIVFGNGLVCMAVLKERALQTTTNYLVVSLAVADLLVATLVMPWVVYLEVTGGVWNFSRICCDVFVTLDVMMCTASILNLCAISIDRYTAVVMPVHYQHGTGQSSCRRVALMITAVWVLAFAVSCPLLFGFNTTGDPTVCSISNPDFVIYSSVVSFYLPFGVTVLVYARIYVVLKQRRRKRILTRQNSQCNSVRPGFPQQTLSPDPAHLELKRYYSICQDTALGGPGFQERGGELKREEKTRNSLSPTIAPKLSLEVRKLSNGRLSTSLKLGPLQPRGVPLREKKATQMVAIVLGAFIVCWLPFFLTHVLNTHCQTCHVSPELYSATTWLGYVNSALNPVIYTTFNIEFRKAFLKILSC
Chain of D(2) dopamine receptor (Rattus norvegicus) (P61169 whole entry, looked up): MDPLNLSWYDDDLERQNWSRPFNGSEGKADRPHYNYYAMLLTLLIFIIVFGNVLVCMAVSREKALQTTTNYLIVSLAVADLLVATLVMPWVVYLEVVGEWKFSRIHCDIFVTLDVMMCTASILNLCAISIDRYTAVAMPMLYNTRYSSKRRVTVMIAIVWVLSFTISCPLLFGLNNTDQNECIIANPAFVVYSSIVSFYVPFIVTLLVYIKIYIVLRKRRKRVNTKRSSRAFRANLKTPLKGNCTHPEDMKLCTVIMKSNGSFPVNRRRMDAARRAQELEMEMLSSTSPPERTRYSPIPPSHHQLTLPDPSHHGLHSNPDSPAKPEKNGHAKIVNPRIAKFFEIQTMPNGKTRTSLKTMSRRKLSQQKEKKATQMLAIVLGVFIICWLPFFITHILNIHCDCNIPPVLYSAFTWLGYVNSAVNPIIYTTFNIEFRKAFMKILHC
T1 sequence (P61169 whole entry): as the sequence (P61169 whole entry, looked up) above
Chain of D(2) dopamine receptor (Homo sapiens, UniProt P14416) (P14416 whole entry): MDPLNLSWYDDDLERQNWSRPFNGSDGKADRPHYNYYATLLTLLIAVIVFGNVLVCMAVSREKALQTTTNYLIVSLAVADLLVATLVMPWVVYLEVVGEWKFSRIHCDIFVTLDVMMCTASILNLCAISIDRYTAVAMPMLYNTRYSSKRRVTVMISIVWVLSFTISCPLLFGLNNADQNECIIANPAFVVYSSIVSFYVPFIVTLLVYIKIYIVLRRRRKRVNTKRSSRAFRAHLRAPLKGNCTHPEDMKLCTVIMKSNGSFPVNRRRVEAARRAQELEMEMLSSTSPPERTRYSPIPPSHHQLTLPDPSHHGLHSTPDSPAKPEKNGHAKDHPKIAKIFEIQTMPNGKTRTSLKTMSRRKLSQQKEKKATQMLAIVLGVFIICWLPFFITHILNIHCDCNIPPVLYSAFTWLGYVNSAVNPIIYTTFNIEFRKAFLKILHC
Description for D(3) dopamine receptor: Affinity for the Human Dopamine receptor D3 was determined using membranes from CHO cells labeled with [3H]spiperone
Description for D(4) dopamine receptor: Affinity for the Human Dopamine receptor D4 was determined using membranes from CHO cells labeled with [3H]spiperone

Consider `O=c1[nH]c2ccc3c(c2[nH]1)O[C@@H](CNCc1ccccc1)CC3`, for which the Ki was found to be 0.07 nM at D(2) dopamine receptor [1]; 4.81 nM on D(2) dopamine receptor [2]; 3 nM on D(2) dopamine receptor [3]; 0.4 nM on D(3) dopamine receptor; 7 nM at D(4) dopamine receptor.
The like results for `O=c1[nH]c2ccc3c(c2[nH]1)OC(CNCc1ccccc1)CC3` (racemic) were, in that order, 0.14 nM, 7.01 nM, 5 nM, 1 nM and 10 nM.
As for `O=c1[nH]c2ccc3c(c2[nH]1)O[C@H](CNCc1ccccc1)CC3`, the inhibition constant (Ki) at D(2) dopamine receptor [1] was found to be 5.45 nM; at D(2) dopamine receptor [2], 67.5 nM; at D(2) dopamine receptor [3], 67 nM; at D(3) dopamine receptor, 81 nM; at D(4) dopamine receptor it was 313 nM.
With `Oc1nc2c3c(ccc2[nH]1)CC[C@@H](CNCc1ccccc1)O3`, the Ratio in experiment [4] was 12.
Same read-out and setting: the figure for `FC(F)(F)c1nc2c3c(ccc2[nH]1)CCC(CNCc1ccccc1)O3` (racemic) is 11; for `Oc1nc2c3c(ccc2[nH]1)CCC(CNCc1ccccc1)O3` (racemic) it is 50; for `Oc1nc2c3c(ccc2[nH]1)CC[C@H](CNCc1ccccc1)O3` it is 69.
For the molecule `c1ccc(CNC[C@H]2CCc3ccc4[nH]ccc4c3O2)cc1`, the Ki turned out to be 107 nM on D(2) dopamine receptor [3], 34 nM at D(3) dopamine receptor and 2170 nM on D(4) dopamine receptor. Also, the Ratio in experiment [4] was 24.
For `O=C1Cc2c(ccc3c2O[C@@H](CNCc2ccccc2)CC3)N1`, the figures for the Ki on D(2) dopamine receptor [3], at D(3) dopamine receptor and at D(4) dopamine receptor were 9.3 nM, 2.4 nM and 359 nM, respectively. The Ratio in experiment [4] is 42.
`FC(F)(F)c1nc2ccc3c(c2[nH]1)OC(CNCc1ccccc1)CC3` (racemic): the Ki at D(2) dopamine receptor [1] worked out at 5.75 nM; at D(2) dopamine receptor [2] it was 65.1 nM; at D(2) dopamine receptor [3], 132 nM; on D(3) dopamine receptor, 263 nM; at D(4) dopamine receptor, 37 nM.
